Literature values in patent US20060168671A1, “Injection of caprine sperm factor (cSF), phospholipase C zeta (PLCzeta) and adenophostin A as alternative methods of activation during nuclear transfer in the caprine species” (priority 2005, published 2006).

Legend:
MII mouse eggs = details: Jellerette et al., 2000
IP3R = details: relative to IP3; Takahashi et al., 1994

Structure (SMILES): Nc1ncnc2c1ncn2[C@@H]1O[C@H](CO)[C@@H](O[C@H]2O[C@H](CO)[C@@H](OP(=O)(O)O)[C@H](OP(=O)(O)O)[C@H]2O)[C@H]1OP(=O)(O)O [Adenophostin A]
- [Ca2+]i oscillations (MII mouse eggs): induces fertilization-like oscillations
- activation rates (MII mouse eggs): high activation rates
- affinity to IP3R greater than IP3 itself (IP3R): 10-100 fold
